Data set [1] can be described thus: Cytotoxicity against human D423 cells with ENO1 deficient assessed as reduction in cell viability incubated for 5 days by crystal violet staining based spectrophotometry. The settings on record: 120 h.
Data set [2] can be described thus: Cytotoxicity against human D423 cells with ENO1 deficient assessed as reduction in cell viability incubated for 5 days in presence of 21 % oxygen by crystal violet staining based spectrophotometry. The settings on record: 120 h.
Data set [3] is described as follows: Cytotoxicity against human D423 cells with ENO1 deficient assessed as reduction in cell viability incubated for 5 days in presence of 1 % oxygen by crystal violet staining based spectrophotometry. The settings on record: 120 h.
Data set [4] in a line: Stability in human plasma assessed as formation of monoester metabolite measured at less than 30 mins by NMR analysis. In kind it is ADME, cell-free. The note with it: 0.5 h.
Data set [5] can be described thus: Stability in human plasma assessed as formation of monoester metabolite measured upto 22 hrs by NMR analysis. It counts as ADME, cell-free.

As to `CC(C)(C)C(=O)OCOP(=O)(OCOC(=O)C(C)(C)C)C1CCCN(O)C1=O` (stereo unspecified), the IC50 (commonly the concentration at which inhibition is half-maximal) in data set [1] came out at 38 nM; in data set [2], 79 nM; in data set [3], 201 nM. Further, the Stability entry in data set [4] is reported as “Unstable”.
With `O=C1C(P(=O)(O)O)CCCN1O` (stereo unspecified), the IC50 in data set [1] amounted to 11800 nM.
Consider `Cn1c(COP(=O)(NCCBr)NCCBr)cnc1[N+](=O)[O-]` [EVOFOSFAMIDE], for which the IC50 was determined as 3200 nM in data set [2] and 404 nM in data set [3].
For `CC(=O)ON1CCCC(P(=O)(NCc2ccccc2)OCc2ccc([N+](=O)[O-])o2)C1=O` (stereo unspecified), the IC50 worked out at 299 nM in data set [2] and 136 nM in data set [3]. For the same molecule, the Stability entry in data set [5] was “Stable”.
`CC(C)(C)C(=O)OCOP(=O)(NCc1ccccc1)C1CCCN(O)C1=O` (stereo unspecified): the IC50 in data set [1] was 98 nM.

Source of the values: ChEMBL document CHEMBL4619798, “Bioreducible Phosphonoamidate Pro-drug Inhibitor of Enolase: Proof of Concept Study” (ACS Med Chem Lett, 2020).
